# From paper PMC10747602, “Dose Response, Dosimetric, and Metabolic Evaluations of Replacement PFAS Perfluoro-(2,5,8-trimethyl-3,6,9-trioxadodecanoic) Acid (HFPO-TeA)” (Toxics, 2023)
# Values joined by “and” are separate entries in the source; they are usually repeats but may differ in a detail not shown here. Equal entries are not always repeated.
# Key:
# [1] = Hepatocyte metabolic stability (clearance) assay, rat hepatocytes; conditions: both, Sprague Dawley, rat, hepatocytes
# Experimental: (§1) Information on the chemicals and materials used in the hepatocyte metabolic work can be found in Supplementary Text S9 and Table S3. In vitro evaluations of hepatocyte metabolic stability were performed in human and rat hepatocytes, as previously described. Briefly, pooled, cryopreserved hepatocyte suspensions were thawed, assessed for viability, and then diluted in William’s medium E containing dexamethasone and cell maintenance cocktail B to achieve a cell density of 50,000 cells/100 µL. The assay was started by adding hepatocyte suspensions to wells of 96-well polypropylene plates containing an equal volume of media with 2 µM of analyte (final assay concentration: 1 µM). Plates were placed in a 37 °C cell culture incubator (5% CO2) on a shaker set to 200 rpm. Time points assessed were T0, T15, T30, T60, T120, and T240 min. At each time point, the plates were removed from the shaker and the incubates were crashed with an equal volume of ice-cold ACN containing 1.2% FA and 16 ng/mL of ^13C3 -HFPO-DA. After chilling and centrifugation at 4122× g, the supernatants were transferred to new collection plates and stored at −70 °C until analysis for the parent compound on the Waters instrumentation described below. Immediately prior to analysis, samples were thawed, vortexed, and centrifuged at 4200× g, and then diluted 1:4 in 95:5 H2O/ACN with 2.5 mM of ammonium acetate. Negative controls, including no cell controls and metabolically inactivated hepatocytes, were run concurrently to assess the chemical stability over the time course.
# (§2) Intrinsic clearance (Clint; hepatic clearance) calculations are detailed in Supplementary Text S9 [57].
# (§3) Targeted, quantitative analysis of in vitro hepatocyte metabolic stability and plasma protein binding assay samples was conducted on a Waters Xevo-TQS micro mass spectrometer (Waters, Milford, MA, USA) ultra-high-performance liquid chromatography tandem mass spectrometry system (UPLC-MS/MS), modified with a PFAS analysis kit. Samples were analyzed in negative ion mode with UniSpray ionization. A CORTECS T3 column (Waters CORTECS, 3 × 100 mm, particle size 2.7 µm) was used for chromatographic separation with a flow rate of 0.6 mL/min and a temperature of 55 °C. Gradient elution was used with eluent A (95:5 H2O/ACN) and eluent B (95:5 ACN/H2O) with 2.5 mM of ammonium acetate. The gradient is available in Table S11. Additional details for MS parameters are found in Table S12 and monitored transitions are found in Table S13.
# (§4) Table S2: Data processing parameters used with Sciex MarkerView 1.3.1.
# (§5) Support ing Text S9: Hepatocyte Metabolic Stability Assay Materials, Chemicals, and Calculations
# (§6) Pooled human and rat cryopreserved primary hepatocyte suspensions were both obtained from
# (§7) BioIVT, a US Food and Drug Administration-licensed and inspected donor center, and produced using
# (§8) non-transplantable tissue.
# (§9) William’s E media, dexamet hasone (98% pure), and cell maintenance cocktail B were obtained from
# (§10) Thermo Fisher Scientific (Waltham, MA, USA), the OptiThaw hepatocyte kit from Sekisui/Xenotech
# (§11) (Tokyo, Japan), and the trypan blue s (Sekisui/ Xenotech, Tokyo, Japan) and the trypan blue solution from […]
# [2] = Hepatocyte metabolic stability (clearance) assay, human hepatocytes; conditions: human, hepatocytes, 1000 nM
# Experimental: as §1, §2, §3, §4, §5, §6, §7, §8, §9, §10, §11
# [3] = Ultracentrifugation plasma protein binding assay, rat plasma; assay type: in vitro ADME; conditions: both sexes, Sprague Dawley, rat, rat plasma, 10000 nM
# Experimental: (§12) Information on the chemicals and materials used in the plasma protein binding work can be found in Supplementary Text S10 and Table S3. Human and rodent plasma were evaluated for plasma protein binding using ultracentrifugation, as previously described. Working solutions of 3 mM of HFPO-DA, HFPO-TA, and HFPO-TeA were prepared separately in ethanol, with each working solution containing 3 mM of testosterone (Sigma-Aldrich; ≥98% pure) as a reference compound for assay performance. An aliquot of each stock solution (13.3 µL) was added to separate 15 mL tubes with 3.987 mL of plasma for a final assay concentration of 10 µM. The plasma solutions were incubated at 37 °C and 125 rpm for 60 min. One-hour stability samples (T60 min) were drawn in triplicate and diluted in four volumes of plasma ultrafiltrate. Aliquots (1 mL) from each plasma solution were drawn in triplicate and transferred to polycarbonate tubing. These samples underwent ultracentrifugation (Beckman OptimaMax; Beckman Coulter Inc., Brea, CA, USA) at 850,000× g for 4 h at 37 °C.
# (§13) The remaining plasma solutions were returned for incubation at 37 °C and 125 rpm for an additional 4 h. Five-hour stability samples (T300 min) were then drawn in triplicate and diluted in four volumes of plasma ultrafiltrate. After ultracentrifugation, the aqueous fraction (AF) was collected by transferring the supernatant to a new tube and diluting in an equal volume of plasma for matrix matching. All samples were combined with 3 volumes of ice-cold ACN containing 16 ng/mL of ^13C3-HFPO-DA and 16 ng/mL of ^13C-Testosterone (Cambridge Isotope Laboratories; 98% pure). Samples were vigorously mixed, stored for 10 min at −20 °C, and then centrifuged at 12,000× g for 10 min at 4 °C. Supernatants were collected then stored at −70 °C prior to analysis.
# (§14) Fraction unbound (fu) in plasma (fup) and percent stability calculations are detailed in Supplementary Text S10. Hepatic clearance, the fu in blood (fub) (fu in plasma adjusted for blood:plasma partitioning), and renal clearance were used to derive the steady-state concentration (Css) of each compound that will be used for in vitro–in vivo extrapolation (IVIVE). Renal clearance was calculated using the glomerular filtration rate (a species-dependent constant) and the fub. The Css calculation is detailed in Supplementary Text S11.
# (§15) The gradient is available in Table S11. […]
# (§16) Chemical stability in plasma was assessed
# (§17) (F) Percent Stability = T300minutesT60minutes∗100
# [4] = system: Sprague Dawley rodent plasma; test: as above; assay type: in vitro ADME; conditions: rat plasma, 10000 nM
# Experimental: as §12, §13, §14, §15, §16, §17
# [5] = Ultracentrifugation plasma protein binding assay, human plasma; assay type: in vitro ADME; conditions: both sexes, human
# Experimental: as §12, §13, §14, §15, §16, §17
# Human plasma = test: as above; assay type: in vitro ADME; conditions: for Experimental fup (average fraction unbound in plasma): 10 µM, ultracentrifugation; for Average Stability (T5hr/ T1hr) / Aqueous Fraction concentration / Fraction Unbound in plasma (fup) / Stability (T5hr/ T1hr) / Time 1 hr concentration / Time 5 hr concentration: 10000 nM; for Average Stability (T5hr/ T1hr): 37 °C; for Aqueous Fraction concentration: after ultracentrifugation; for Aqueous Fraction concentration / Fraction Unbound in plasma (fup) / Stability (T5hr/ T1hr) / Time 1 hr concentration / Time 5 hr concentration: replicates A-C
# Experimental: as §12, §13, §14, §15, §16, §17
structure (smiles),measurement,setting,value
"CC(C)NCC(O)COc1cccc2ccccc12 (stereo not shown) [Propranolol, reference compound]",half-life at 1000 nM,[1],0.261 h
same,half-life at 1 µM,"[2]; HT-Background Half Life, heat treated human hepatocytes",12.3 h
same,half-life at 1 µM,"[2]; Half Life, human hepatocytes, time in min",1.63 h
C[C@]12CC[C@H]3[C@@H](CCC4=CC(=O)CC[C@@]43C)[C@@H]1CC[C@@H]2O [Testosterone],"fraction unbound at 4 h, 10 µM","[3]; Rep A, read-out: Fraction Unbound in plasma (fup), Rep A",0.0553
same,"fraction unbound at 4 h, 10 µM","[3]; Rep B, read-out: Fraction Unbound in plasma (fup), Rep B",0.0589
same,"fraction unbound at 4 h, 10 µM","[3]; Rep C, read-out: Fraction Unbound in plasma (fup), Rep C",0.0507
same,"fraction unbound at 4 h, 10 µM","[3]; ultracentrifugation, read-out: Average fup (fraction unbound in plasma)",0.0549
same,Average Stability (T5hr/ T1hr),[4],1.0825 and 0.9487 and 1.0344
same,"Aqueous Fraction, Rep A",[4]; Rep A,659.2 nM and 463 nM and 481 nM
same,"Fraction Unbound in plasma (fup), Rep A",[4]; Rep A,0.05346 and 0.05095
same,"Stability (T5hr/ T1hr), Rep A",[4]; Rep A,1.0325 and 0.8708 and 1.0149
same,"Time 1 hr concentration, Rep A",[4]; Rep A,11.552 µM and 9.9536 µM and 9.3008 µM
same,"Time 5 hr concentration, Rep A",[4]; Rep A,11.928 µM and 8.6672 µM and 9.4392 µM
same,"Aqueous Fraction, Rep B",[4]; Rep B,678.4 nM and 491 nM and 472 nM
same,"Fraction Unbound in plasma (fup), Rep B",[4]; Rep B,0.0545
same,"Stability (T5hr/ T1hr), Rep B",[4]; Rep B,1.1304 and 0.9004
same,"Time 1 hr concentration, Rep B",[4]; Rep B,10.184 µM and 10.0112 µM and 8.783 µM
same,"Time 5 hr concentration, Rep B",[4]; Rep B,11.512 µM and 9.0136 µM
same,"Aqueous Fraction, Rep C",[4]; Rep C,681.6 nM and 481.28 nM and 439 nM
same,"Fraction Unbound in plasma (fup), Rep C",[4]; Rep C,0.04493 and 0.05209
same,"Stability (T5hr/ T1hr), Rep C",[4]; Rep C,1.0845 and 1.0750 and 1.0540
same,"Time 1 hr concentration, Rep C",[4]; Rep C,12.408 µM and 9.964 µM and 7.99 µM
same,"Time 5 hr concentration, Rep C",[4]; Rep C,13.456 µM and 10.7112 µM and 8.4216 µM
same,Average fup (fraction unbound in plasma),[4]; ultracentrifugation,0.0510 and 0.0515
same,"fraction unbound at 4 h, 10 µM","[5]; plasma, 10 µM, ultracentrifugation, read-out: Experimental fup (average fraction unbound in plasma)",0.048
same,"fraction unbound at 4 h, 10 µM","[5]; pooled human plasma, 10000 nM, replicates A-C, read-out: Fraction Unbound in plasma (fup)",0.0537
same,Experimental fup (average fraction unbound in plasma),Human plasma,0.0417
same,Experimental fup (average fraction unbound in plasma),Human plasma; listed as Tesosterone,0.0359
same,Average Stability (T5hr/ T1hr),Human plasma,1.1059 and 0.9812
same,Average Stability (T5hr/ T1hr),Human plasma; listed as Tesosterone,1.0002
same,Aqueous Fraction concentration,Human plasma,546.88 nM and 521.28 nM and 574.4 nM and 376.32 nM and 357.12 nM and 381.76 nM
same,Aqueous Fraction concentration,Human plasma; listed as Tesosterone,293.12 nM and 277.12 nM and 292.16 nM
same,Fraction Unbound in plasma (fup),Human plasma,0.0442 and 0.0462 and 0.0429 and 0.0406 and 0.0415
same,Stability (T5hr/ T1hr),Human plasma,0.9564 and 1.2770 and 1.0843 and 0.9797 and 0.9599 and 1.0039
same,Time 1 hr concentration,Human plasma,10.6456 µM and 9.2344 µM and 11.4704 µM and 8.9504 µM and 9.1664 µM and 9.1736 µM
same,Time 5 hr concentration,Human plasma,10.1816 µM and 11.792 µM and 12.4368 µM and 8.7688 µM and 8.7984 µM and 9.2096 µM
same,Fraction Unbound in plasma (fup),Human plasma; listed as Tesosterone,0.0369 and 0.0320 and 0.0386
same,Stability (T5hr/ T1hr),Human plasma; listed as Tesosterone,0.9569 and 1.1423 and 0.9014
same,Time 1 hr concentration,Human plasma; listed as Tesosterone,8.3008 µM and 7.576 µM and 8.3888 µM
same,Time 5 hr concentration,Human plasma; listed as Tesosterone,7.9432 µM and 8.6544 µM and 7.5616 µM
